Patent US12582652B2, “3-(ethoxydifluoromethyl)-6-(5-fluoro-6-(2,2,2-trifluoroethoxy)pyridin-3-yl)-[1,2,4]triazolo[4,3-a]pyrazine as an ion channel modulator” (Praxis Precision Medicines, Inc., priority 2022, dated 2026)

Key:
[1] = in vivo
Excerpt: (§5) This was a 2-part randomized, placebo-controlled Phase 1 trial in healthy participants aged 18-55 years. […] PD effects were examined on quantitative EEG (qEEG; resting and vigilant conditions) and stimulated EEG using auditory steady state response (ASSR). A total of 48 participants were enrolled; Part A, n=30; Part B, n=18.

human NaV1.6 [2] = target: T1, human NaV1.6 (Homo sapiens, UniProt Q9UQD0); test: Peak INa tonic block (TB), PatchXpress patch clamp; assay type: cell-based; details: for IC50: hNaV1.6, 0.1 Hz, resting state
T1 construct: stably expressing either human NaV1.6 (NP_055006); expressed in transfected cells
T1 sequence (Q9UQD0 whole entry): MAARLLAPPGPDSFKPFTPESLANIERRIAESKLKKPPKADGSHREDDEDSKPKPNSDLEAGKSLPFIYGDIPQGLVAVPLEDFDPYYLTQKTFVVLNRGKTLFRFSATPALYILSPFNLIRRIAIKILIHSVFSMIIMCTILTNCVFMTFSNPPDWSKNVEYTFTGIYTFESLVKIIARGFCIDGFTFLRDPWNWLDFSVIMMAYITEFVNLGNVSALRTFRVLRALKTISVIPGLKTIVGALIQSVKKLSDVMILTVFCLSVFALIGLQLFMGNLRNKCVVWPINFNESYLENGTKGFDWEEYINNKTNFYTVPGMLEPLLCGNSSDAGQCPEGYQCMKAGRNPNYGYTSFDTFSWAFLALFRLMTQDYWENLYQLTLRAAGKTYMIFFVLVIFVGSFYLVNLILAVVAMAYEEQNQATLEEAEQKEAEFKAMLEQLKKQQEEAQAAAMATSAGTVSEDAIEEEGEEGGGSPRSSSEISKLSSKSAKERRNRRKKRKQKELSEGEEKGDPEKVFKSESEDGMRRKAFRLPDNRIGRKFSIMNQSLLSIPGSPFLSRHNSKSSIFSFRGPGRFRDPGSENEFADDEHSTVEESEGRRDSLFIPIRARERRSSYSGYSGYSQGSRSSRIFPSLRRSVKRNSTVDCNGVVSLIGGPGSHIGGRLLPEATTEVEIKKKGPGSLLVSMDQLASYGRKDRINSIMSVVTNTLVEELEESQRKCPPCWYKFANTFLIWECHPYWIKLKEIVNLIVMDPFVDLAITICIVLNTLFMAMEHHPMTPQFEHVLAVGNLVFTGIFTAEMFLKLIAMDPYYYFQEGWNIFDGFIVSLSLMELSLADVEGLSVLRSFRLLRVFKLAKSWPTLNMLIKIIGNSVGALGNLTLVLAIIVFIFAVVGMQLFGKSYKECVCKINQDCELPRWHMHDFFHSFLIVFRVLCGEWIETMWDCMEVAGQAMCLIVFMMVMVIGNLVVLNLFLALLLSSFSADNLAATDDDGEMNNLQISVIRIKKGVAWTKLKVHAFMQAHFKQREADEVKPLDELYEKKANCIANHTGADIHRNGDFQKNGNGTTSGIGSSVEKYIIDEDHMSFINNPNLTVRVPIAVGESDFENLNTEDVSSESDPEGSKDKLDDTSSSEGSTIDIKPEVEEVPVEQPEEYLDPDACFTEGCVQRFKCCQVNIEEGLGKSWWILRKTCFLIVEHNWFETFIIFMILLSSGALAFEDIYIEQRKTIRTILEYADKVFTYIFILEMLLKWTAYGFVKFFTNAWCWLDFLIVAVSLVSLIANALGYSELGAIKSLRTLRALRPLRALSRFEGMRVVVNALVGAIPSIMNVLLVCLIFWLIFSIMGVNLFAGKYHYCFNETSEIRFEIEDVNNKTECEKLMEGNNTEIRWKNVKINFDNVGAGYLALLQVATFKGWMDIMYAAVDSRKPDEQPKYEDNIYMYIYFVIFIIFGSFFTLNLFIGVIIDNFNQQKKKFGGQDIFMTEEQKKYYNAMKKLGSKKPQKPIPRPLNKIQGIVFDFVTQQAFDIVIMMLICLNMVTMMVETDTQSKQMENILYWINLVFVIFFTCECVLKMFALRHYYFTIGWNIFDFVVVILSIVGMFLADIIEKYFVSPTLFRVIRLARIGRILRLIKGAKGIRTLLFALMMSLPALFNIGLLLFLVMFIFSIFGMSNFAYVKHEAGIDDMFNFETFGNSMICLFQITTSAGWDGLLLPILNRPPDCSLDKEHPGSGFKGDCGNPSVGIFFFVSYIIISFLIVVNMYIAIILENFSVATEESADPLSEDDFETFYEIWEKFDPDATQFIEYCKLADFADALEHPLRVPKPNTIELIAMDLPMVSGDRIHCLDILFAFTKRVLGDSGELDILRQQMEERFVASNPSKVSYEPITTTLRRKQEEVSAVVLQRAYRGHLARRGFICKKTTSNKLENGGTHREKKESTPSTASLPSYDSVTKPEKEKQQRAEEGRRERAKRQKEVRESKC
Experimental: (§1) HEK-293 cell lines stably expressing either human NaV1.6 (NP_055006), mouse NaV1.6 (NP_035453.2), or rat NaV1.6 (NP_062139) were used. All cells were seeded at 2×10^6 cells per Nunc T75 flask for 2 days in culture. At time of harvest for assays, the cell counts were approximately 6×10^6 cells. Cells were washed (1×) in DPBS (Hyclone, Cat #SH30028.03) for approximately 30 seconds. 1 mL of 1×0.05% Trypsin-EDTA (GIBCO Cat #25300-054) was added and swirled around to cover the bottom of the flask and was allowed to sit on the cells for approximately 4 minutes (±90% of the cells were lifted by light tapping of the flask). 10 mL of warmed media (DMEM high glucose media Hyclone, SH30022.02 supplemented with 10% Fetal Bovine Serum, 2 mM Sodium Pyruvate, 10 mM HEPES and 400 μg/mL G418) was added to inactivate the trypsin. Cells were triturated until a single cell suspension was achieved. A cell count was performed and cells were aliquoted into a 250 ml centrifuge tube at a concentration of 2×10^5/mL in +30 ml of prewarmed media. The 250 mL centrifuge tube was placed on a rocker in an incubator set at 28° C. and gently rocked for approximately 1 hour to allow cells to recover. Cell aliquots of 5 mL (1×10^6 cells) were placed in a 15 mL centrifuge tube and spun at 100×g for 2 minutes. Supernatant was removed leaving a cell pellet. 100 μL of external recording solution was added to the pellet and triturated 20 times to achieve a single cell suspension and then transferred to a 1.5 mL tube for placement in the PatchXpress® (Molecular Devices).
(§2) Compound 1 was provided as powder and prepared as 10 mM DMSO stocks in 1 dram glass vials prior to assay. Immediately prior to assay, Compound 1 was diluted with DMSO to 300×, the designated final assay concentration. Assay dilutions (1× concentration) were prepared by pipetting 3 μL of diluted Compound 1 into 897 μL of extracellular solution in a 1 mL glass shell vial. Vials were capped and vortexed until initiation of the PatchXpress® (Molecular Devices) recording protocol.
(§3) The same intracellular recording solution was used for the persistent and peak INa assays, which contained: 135 mM CsF, 10 mM CsCl, 5 mM NaCl, 10 mM HEPES, 5 mM EGTA at a pH of 7.4 (adjusted with CsOH) and a measured osmolarity of 298 mOsm (adjusted with mannitol). For the persistent INa assay, the external recording solution contained: 135 mM NaCl, 5.4 mM KCl, 5 mM glucose, 2 mM CaCl2), 1 mM MgCl2, 10 mM HEPES, and 200 nM ATX-II (sea anemone toxin, Alomone Labs; Jerusalem, Israel) at a pH of 7.4 (adjusted with NaOH) and a measured osmolarity of 300 mOsm (adjusted with mannitol). For the peak INa assays, the external recording solution contained: 100 mM NaCl, 35 mM NMDG, 5.4 mM KCl, 5 mM glucose, 2 mM CaCl2), 1 mM MgCl2, and 10 mM HEPES at a pH of 7.4 (adjusted with NaOH) and a measured osmolarity of 300 mOsm (adjusted with mannitol).
(§4) All studies were performed using the PatchXpress® (Molecular Devices) automated patch clamp platform (Molecular Devices) using the whole cell configuration. Recordings were performed at room temperature. Data were collected using Patch Commander software (Molecular Devices) and processed using DataXpress 2.0 (Molecular Devices). Cell acceptance criteria were continuously monitored by custom scripts during the recording. Acceptance criteria for all assays were: baseline peak INa>800 pA, Rseal>200 MΩ, and, where appropriate, persistent INa>100 pA. Compensation was 50% and leak subtraction was not used. Currents were filtered at 5 kHz and digitized at 32.5 kHz. Raccess and Rseal were monitored throughout the recording and cells with Raccess>10 MΩ or Rseal<200 MΩ were terminated automatically by script.
Tonic Block (TB): Tonic Block (TB) protocols used low stimulation rates (about 0.1 Hz) and negative potentials (−120 mV) to keep channels in closed (resting) states. Pharmacology was measured during peak INa in response to step to 0 mV. No leak subtraction was used.

human NaV1.6 [3] = target: T1, human NaV1.6; test: ATX-II activated late (persistent) INa block, PatchXpress patch clamp; assay type: cell-based; details: for IC50: hNaV1.6, ATX-II-evoked, holding −120 mV
Experimental: as §1, §2, §3, §4
Late (persistent) current Block: The inhibition of ATX-II activated late current was measured using a 200 ms voltage step to 0 mV. Protocols used low stimulation rates (about 0.1 Hz) and negative potentials (−120 mV) to keep channels in closed (resting) states.

male CD-1 mice [4] = test: Maximal electroshock induced seizure (MES) test; assay type: in vivo, mouse; details: for protection (increase in latency) against MES-induced tonic hindlimb seizures, dose-response: Compound 1 0.3-10 mg/kg po; for ED50: mouse MES, read-out: Efficacy (MES) ED50, increasing latency to tonic extension seizures
Experimental: Food and water were available ad libitum.
VPA was prepared in saline (Vehicle 1). All solutions were protected from light. All compounds and vehicles were dosed at 10 ml/kg.
The MES test was carried out over two days with 6 of 12 mice from each treatment group being tested on each day. Mice were brought to the test room at least one hour before the start of the experiment.
A Grass S88x (Grass Technologies of Astro-Med, Inc., West Warwick, RI) Stimulus Isolation Unit (A385, WPI Inc., USA) was set to deliver a 50 mA square-wave stimulus, with a 0.8 second duration, a pulse width of 10 msec, and a frequency of 50 Hz. A pair of custom stainless steel electrodes were soaked in 0.2% Agar, and then the subject received bilateral transauricular stimulation through ear-clip electrodes. During the stimulation, mice were manually restrained. They were then released into the observation cage for convulsion observation for 60 seconds immediately after stimulation. Each mouse was observed continuously by individuals blinded to treatment conditions and results were recorded.
Anti-seizure assessment endpoints were: (1) latency of hindlimb tonic flexion; (2) latency of hindlimb tonic extension; (3) total #hindlimb tonic flexions; (4) total #hindlimb tonic extensions; (5) latency to death; and (6) mortality rate
From these fitted curves, ED50 and EC50 values were calculated.

male CD-1 mice [5] = test: Spontaneous locomotor activity (sLMA) test; details: for sLMA distance moved, dose-response: Compound 1 10-40 mg/kg po; for Tolerability (sLMA) TD50: dose reducing sLMA by 50%
Experimental: Male CD-1 mice, 6-weeks old, were obtained from Vital River (Beijing, China). The average body weight was 25-35 g at the time the experiments were carried out. The mice were housed in groups of 3-5 under controlled conditions (temperature: 20-26° C.; humidity: 40-70%; air exchange rate: 10-15 cycles/hour; 12:12 light-dark cycle with lights on at 5:00 a.m.). Food and water were available ad libitum. The mice were acclimated to these conditions for 6 days before the start of the studies.
Dosing solutions were prepared on each experiment day. […] All solutions were protected from light. Samples from dosing solutions were stored at 4° C. Both compound and vehicle were dosed at 10 ml/kg.
The sLMA test was carried out over two days. 5 of 10 mice from each treatment group were tested on each day. All animals were marked on the tail with a permanent marker and weighed. Mice were randomly assigned into one of the four treatment groups. Animals were acclimated to the test room at least 30 minutes before the start of the experiment.
Possible side effects, such as overt sedation, were recorded just before the start of the sLMA test.
Each mouse was automatically tracked with overhead cameras using a 1-minute sampling window in an isolated chamber. Spontaneous locomotor activity was then analyzed offline using the Animal Behavior Video Tracking Analysis System (Ji Liang Software Technology Co., Ltd., Shanghai, China).
Locomotor status was defined as >2 mm of movement in every 200 ms (Frame-rate recorded was 20 frames/second. Locomotor status was identified in every 4 frame-to-frame interval. The accumulated shift of tracking spots that exceeded 2 mm in every 4 frame intervals was identified as a locomotor epoch). Traveling distance was calculated automatically from all the locomotion epochs and analyzed.
All mice were anesthetized with CO2. Then, terminal plasma and brain tissue samples were collected from animals in the drug treatment groups. 500 μL whole blood was collected via cardiac puncture and placed in tubes with 10 μL EDTAK2. The tubes were then placed in wet ice until centrifuged at 2000 g for 5 minutes at 4° C. The supernatant plasma was pipetted into Eppendorf tubes.
All statistical analyses were conducted using GraphPad Prism 7.0. Data are presented as mean±s.e.m., and p<0.05 was regarded as statistically significant.
Dose-response and concentration-response curves for plasma and brain were fitted for each end-point using GraphPad Prism. From these fitted curves, TD50 and TC50 values were calculated.

human NaV1.6 [6] = target: T1, human NaV1.6; test: Peak INa voltage-dependent block (VDB), PatchXpress patch clamp; assay type: cell-based; details: for IC50: hNaV1.6, half-inactivated (V1/2); for Ratio to Pers. INa (Peak INa VDB / persistent INa): hNaV1.6
Experimental: as §1, §2, §3, §4
Voltage Dependent Block (VDB): VDB protocols used a depolarized voltage to keep channels in half-inactivated (resting) states. This allowed equilibrium binding and accurate determination of isoform selectivity (in the absence of biological features).

human NaV1.6 [7] = target: T1, human NaV1.6; test: Peak INa use-dependent block (UDB-10 Hz), PatchXpress patch clamp; assay type: cell-based
healthy participants = test: 2-part Phase 1 trial (28 days; OXC combination): safety and tolerability; assay type: in vivo, human; details: Part B, per arm
Excerpt: as §5

## NC(=O)N1c2ccccc2CC(O)c2ccccc21 (stereo not shown) [10-Hydroxycarbamezapine]
[1]
  exposure when administered concomitantly with Compound 1 vs alone: appeared to be similar

## NC(=O)N1c2ccccc2C=Cc2ccccc21 [Carbamazepine, reference compound]
Human NaV1.6 [2]
  IC50: 2310 µM
Human NaV1.6 [3]
  IC50: 77.5 µM
Male CD-1 mice [4]; CBZ 30 mg/kg
  mice protected against MES-induced tonic hindlimb seizures: all mice
Male CD-1 mice [4]
  protection (increase in latency) against MES-induced tonic hindlimb seizures, dose-response: dose-dependent protection
  ED50: 5 mg/kg
Male CD-1 mice [5]; CBZ
  sLMA at the dose required for complete seizure prevention: significant reduction
Male CD-1 mice [5]
  sLMA distance moved, dose-response: dose-dependent reductions
  Tolerability (sLMA) TD50: 37.6 mg/kg
Male CD-1 mice [5]; brain TC50 (sLMA) / brain EC50 (MES), free concentrations
  PI (Brain): 5.9
Male CD-1 mice [5]; plasma TC50 (sLMA) / plasma EC50 (MES), free concentrations
  PI (Plasma): 3.4
Human NaV1.6 [6]
  IC50: 44.4 µM
Human NaV1.6 [7]; hNaV1.6, 10 Hz
  IC50: 1420 µM
  use-dependent block at stimulation frequency of 10 Hz: not observed
Human NaV1.6 [7]; hNaV1.6, 10 Hz, 30 Hz or 50 Hz
  use-dependent block at increased frequencies: could be observed

## NC(=O)O[C@@H](Cn1ncnn1)c1ccccc1Cl [Cenobamate]
Human NaV1.6 [2]; hNaV1.6
  Ratio to Pers. INa (Peak INa TB / persistent INa): 24
Human NaV1.6 [2]
  IC50: 1720 µM
Human NaV1.6 [3]
  IC50: 71.7 µM
Human NaV1.6 [6]
  Ratio to Pers. INa (Peak INa VDB / persistent INa): 0.9
  IC50: 66.7 µM
Human NaV1.6 [7]; hNaV1.6
  Ratio to Peak INa (TB) (UDB-10 Hz): 2.3
  Ratio to Pers. INa (Peak INa UDB-10 Hz / persistent INa): 11
Human NaV1.6 [7]; hNaV1.6, 10 Hz
  IC50: 749 µM

## COC[C@@H](NC(C)=O)C(=O)NCc1ccccc1 [Lacosamide]
Human NaV1.6 [3]
  IC50: 833 µM
Human NaV1.6 [6]
  Ratio to Pers. INa (Peak INa VDB / persistent INa): 0.3
  IC50: 269 µM
Human NaV1.6 [7]; hNaV1.6
  Ratio to Pers. INa (Peak INa UDB-10 Hz / persistent INa): 0.8
Human NaV1.6 [7]; hNaV1.6, 10 Hz
  IC50: 682 µM

## Nc1nnc(-c2cccc(Cl)c2Cl)c(N)n1 [Lamotrigine, reference compound]
Male CD-1 mice [4]
  protection (increase in latency) against MES-induced tonic hindlimb seizures, dose-response: dose-dependent protection
  ED50: 3.4 mg/kg
Male CD-1 mice [4]; LTG 10 mg/kg, highest dose tested
  mice protected against MES-induced tonic hindlimb seizures: eight of 12
Male CD-1 mice [5]
  sLMA distance moved, dose-response: dose-dependent reductions
  Tolerability (sLMA) TD50: 26.5 mg/kg

## NC(=O)N1c2ccccc2CC(=O)c2ccccc21 [Oxcarbazepine]
Human NaV1.6 [2]; hNaV1.6
  Ratio to Pers. INa (Peak INa TB / persistent INa): 8
Human NaV1.6 [2]
  IC50: 1040 µM
Human NaV1.6 [3]
  IC50: 124 µM
[1]
  exposure when administered concomitantly with Compound 1 vs alone: appeared to be similar
Human NaV1.6 [6]
  Ratio to Pers. INa (Peak INa VDB / persistent INa): 0.3
  IC50: 42 µM
Healthy participants
  patients in whom TEAEs were observed (number): 3
  patients in whom TEAEs were observed (percent): 75%

## O=C1NC(=O)C(c2ccccc2)(c2ccccc2)N1 [Phenytoin]
Human NaV1.6 [3]
  IC50: 59.8 µM
Human NaV1.6 [6]
  Ratio to Pers. INa (Peak INa VDB / persistent INa): 0.8
  IC50: 47.8 µM
Human NaV1.6 [7]; hNaV1.6
  Ratio to Pers. INa (Peak INa UDB-10 Hz / persistent INa): 15
Human NaV1.6 [7]; hNaV1.6, 10 Hz
  IC50: 877 µM

## CCCC(CCC)C(=O)O [Valproic acid]
Human NaV1.6 [2]; hNaV1.6, 1 mM
  inhibition at 1000 µM: 11%
Human NaV1.6 [3]; hNaV1.6, 1 mM
  inhibition at 1000 µM: 2%
Human NaV1.6 [7]; hNaV1.6, 1 mM
  inhibition at 1000 µM: 8%
